Measurements from ChEMBL document CHEMBL3885881, “DrugMatrix”.

Species on record: Rattus norvegicus
Test: DrugMatrix - Regimen: Daily Repeat
Format: toxicity, organism-based, Sprague-Dawley
Parameters: regimen Daily Repeat, gender Male, age 6-8 weeks
Settings: in vivo, po, route oral GAVAGE, vehicle .5 % CMC; for BASOPHIL / EOSINOPHIL / ERYTHROCYTE COUNT / HEMATOCRIT / HEMOGLOBIN / LEUKOCYTE COUNT / LYMPHOCYTE / MEAN CORPUSCULAR HEMOGLOBIN / MEAN CORPUSCULAR HEMOGLOBIN CONCENTRATION / MEAN CORPUSCULAR VOLUME / MONOCYTE / NEUTROPHIL / PLATELET COUNT: tissue Blood; for ALANINE AMINOTRANSFERASE / ALBUMIN / ALKALINE PHOSPHATASE / ASPARTATE AMINOTRANSFERASE / BLOOD UREA NITROGEN / CHLORIDE / CHOLESTEROL / CREATINE PHOSPHOKINASE / CREATININE / GLUCOSE / PHOSPHORUS / POTASSIUM / SODIUM / TOTAL PROTEIN: tissue Plasma
[1] = 30 mg/kg, 120 h, dose level Low, time 5 day
[2] = 1750 mg/kg, 72 h, dose level High, time 3 day
[3] = 1750 mg/kg, 120 h, dose level High, time 5 day

CC(=O)Oc1ccc(C(c2ccc(OC(C)=O)cc2)c2ccccn2)cc1 [BISACODYL]
BASOPHIL [1]: 0% | EOSINOPHIL [1]: 0.67% | ERYTHROCYTE COUNT [1]: 6.91 x10E6/uL | HEMATOCRIT [1]: 43.53% | HEMOGLOBIN [1]: 16.47 G/DL | LEUKOCYTE COUNT [1]: 13.9 x10E3/uL | LYMPHOCYTE [1]: 85% | MEAN CORPUSCULAR HEMOGLOBIN [1]: 23.9 pg | MEAN CORPUSCULAR HEMOGLOBIN CONCENTRATION [1]: 37.97 G/DL | MEAN CORPUSCULAR VOLUME [1]: 63 fL | MONOCYTE [1]: 3.33% | NEUTROPHIL [1]: 11% | PLATELET COUNT [1]: 1208 x10E3/uL | ALANINE AMINOTRANSFERASE [1]: 36.67 u/L | ALBUMIN [1]: 3.53 G/DL | ALKALINE PHOSPHATASE [1]: 306.33 u/L | ASPARTATE AMINOTRANSFERASE [1]: 66 u/L | BLOOD UREA NITROGEN [1]: 19 mg/dL | CHLORIDE [1]: 106.33 MEQ/L | CHOLESTEROL [1]: 70.33 mg/dL | CREATINE PHOSPHOKINASE [1]: 149.33 u/L | CREATININE [1]: 0.53 mg/dL | GLUCOSE [1]: 193.33 mg/dL | PHOSPHORUS [1]: 12.23 mg/dL | POTASSIUM [1]: 6.8 MEQ/L | SODIUM [1]: 151.67 MEQ/L | TOTAL PROTEIN [1]: 5.7 G/DL | BASOPHIL [2]: 0% | EOSINOPHIL [2]: 0% | ERYTHROCYTE COUNT [2]: 7.45 x10E6/uL | HEMATOCRIT [2]: 45.8% | HEMOGLOBIN [2]: 17.43 G/DL | LEUKOCYTE COUNT [2]: 12.3 x10E3/uL | LYMPHOCYTE [2]: 35.67% | MEAN CORPUSCULAR HEMOGLOBIN [2]: 23.5 pg | MEAN CORPUSCULAR HEMOGLOBIN CONCENTRATION [2]: 38.13 G/DL | MEAN CORPUSCULAR VOLUME [2]: 61.47 fL | MONOCYTE [2]: 13.67% | NEUTROPHIL [2]: 50.67% | PLATELET COUNT [2]: 1194 x10E3/uL | ALANINE AMINOTRANSFERASE [2]: 34 u/L | ALBUMIN [2]: 4.3 G/DL | ALKALINE PHOSPHATASE [2]: 166 u/L | ASPARTATE AMINOTRANSFERASE [2]: 53 u/L | BLOOD UREA NITROGEN [2]: 64 mg/dL | CHLORIDE [2]: 84 MEQ/L | CHOLESTEROL [2]: 44 mg/dL | CREATINE PHOSPHOKINASE [2]: 148 u/L | CREATININE [2]: 0.7 mg/dL | GLUCOSE [2]: 165 mg/dL | PHOSPHORUS [2]: 9.4 mg/dL | POTASSIUM [2]: 8.2 MEQ/L | SODIUM [2]: 131 MEQ/L | TOTAL PROTEIN [2]: 7.9 G/DL | BASOPHIL [3]: 0% | EOSINOPHIL [3]: 0% | ERYTHROCYTE COUNT [3]: 7.22 x10E6/uL | HEMATOCRIT [3]: 44.95% | HEMOGLOBIN [3]: 16.55 G/DL | LEUKOCYTE COUNT [3]: 14.05 x10E3/uL | LYMPHOCYTE [3]: 38% | MEAN CORPUSCULAR HEMOGLOBIN [3]: 22.95 pg | MEAN CORPUSCULAR HEMOGLOBIN CONCENTRATION [3]: 36.8 G/DL | MEAN CORPUSCULAR VOLUME [3]: 62.3 fL | MONOCYTE [3]: 6.5% | NEUTROPHIL [3]: 55.5% | PLATELET COUNT [3]: 1469 x10E3/uL | ALANINE AMINOTRANSFERASE [3]: 29 u/L | ALBUMIN [3]: 3.9 G/DL | ALKALINE PHOSPHATASE [3]: 258 u/L | ASPARTATE AMINOTRANSFERASE [3]: 36 u/L | BLOOD UREA NITROGEN [3]: 37 mg/dL | CHLORIDE [3]: 102.5 MEQ/L | CHOLESTEROL [3]: 71 mg/dL | CREATINE PHOSPHOKINASE [3]: 190 u/L | CREATININE [3]: 0.7 mg/dL | GLUCOSE [3]: 183 mg/dL | PHOSPHORUS [3]: 12.1 mg/dL | POTASSIUM [3]: 8 MEQ/L | SODIUM [3]: 147.5 MEQ/L | TOTAL PROTEIN [3]: 7.6 G/DL
